From patent publication US5801263A, “Process for preparing tertiary phosphines containing phosphinate or phosphonate groups, and novel tertiary phosphines containing phosphinate groups” (Hoechst Aktiengesellschaft, priority 1996, dated 1998)
Structures can show the parent of a compound that is named as a salt.

Key:
[1] = in water, at 20° C.; cited from earlier work
Solubility in water = assay type: physicochemical; conditions: sodium salt, no temperature printed for this value
Procedure: 100 ml of a 3.7% strength by weight sodium hydrogen carbonate solution (44.1 mmol NaHCO3) are added to 15.0 g (44.1 mmol) of (4-diphenylphosphinophenyl)methylphosphinic acid and the mixture stirred at room temperature until CO2 formation has ended. The aqueous solution is completely evaporated and dried under reduced pressure. 15.6 g (97% of theory) of sodium (4-diphenylphosphinophenyl)methylphosphinate are obtained. Solubility in water: 590 g/l

O=S(=O)(O)c1cccc(P(c2ccccc2)c2ccccc2)c1 [Na[TPPMS], sodium salt of triphenylphosphinemonosulfonate]
water solubility (literature comparison) [1]: 80 mg/mL

CP(=O)(O)c1ccc(P(c2ccccc2)c2ccccc2)cc1 [Sodium (4-diphenylphosphinophenyl)methylphosphinate]
Solubility in water (Solubility in water): 590 mg/mL

disodium salt of triphenylphosphinemonophosphonate [Na2 TPPMP]
water solubility (literature comparison) [1]: 380 mg/mL
